Reference: the NIST ThermoML archive (doi:10.1016/j.jct.2016.10.010)
Values joined by “and” are separate entries in the source; they are usually repeats but may differ in a detail not shown here. Equal values may be shown once. Numbers after ± are expanded uncertainties.

How the values were obtained:
[1] = for vapor or sublimation pressure: Transpiration method; for Normal melting temperature: DTA
[2] = Molar enthalpy of transition or fusion; conditions: Crystal; DSC

| SMILES | vapor or sublimation pressure ([1]; 431.15 K, Crystal) [kPa] | vapor or sublimation pressure ([1]; 437.15 K, Crystal) [kPa] | vapor or sublimation pressure ([1]; 439.15 K, Crystal) [kPa] | vapor or sublimation pressure ([1]; 441.15 K, Crystal) [kPa] | vapor or sublimation pressure ([1]; 443.15 K, Crystal) [kPa] | vapor or sublimation pressure ([1]; 445.15 K, Crystal) [kPa] | vapor or sublimation pressure ([1]; 447.15 K, Crystal) [kPa] | vapor or sublimation pressure ([1]; 449.15 K, Crystal) [kPa] | vapor or sublimation pressure ([1]; 451.15 K, Crystal) [kPa] | vapor or sublimation pressure ([1]; 453.15 K, Crystal) [kPa] | Normal melting temperature ([1]; Crystal) [°C] | Molar enthalpy of transition or fusion [2] [kcal/mol] | vapor or sublimation pressure ([1]; 436.15 K, Crystal) [kPa] | vapor or sublimation pressure ([1]; 438.15 K, Crystal) [kPa] | vapor or sublimation pressure ([1]; 440.15 K, Crystal) [kPa] | vapor or sublimation pressure ([1]; 442.15 K, Crystal) [kPa] | vapor or sublimation pressure ([1]; 444.15 K, Crystal) [kPa] | vapor or sublimation pressure ([1]; 446.15 K, Crystal) [kPa] | further results |
| --- | --- | --- | --- | --- | --- | --- | --- | --- | --- | --- | --- | --- | --- | --- | --- | --- | --- | --- | --- |
| CCN1CCN(c2cc3c(cc2F)c(=O)c(C(=O)O)cn3C2CC2)CC1 [Enrofloxacin] | 1.79e-06 ± 2.3e-07 | 2.92e-06 ± 3.5e-07 | 3.41e-06 ± 4e-07 | 4.04e-06 ± 4.7e-07 | 4.71e-06 ± 5.4e-07 | 5.49e-06 ± 6.3e-07 | 6.61e-06 ± 7.4e-07 | 7.56e-06 ± 8.5e-07 | 8.91e-06 ± 9.9e-07 | 1.035e-05 ± 1.1e-06 | 221.6 ± 0.7 | 7.86 ± 0.287 | – | – | – | – | – | – | vapor or sublimation pressure ([1]; 433.15 K, Crystal): 2.13e-06 ± 2.6e-07 kPa; vapor or sublimation pressure ([1]; 435.15 K, Crystal): 2.5e-06 ± 3e-07 kPa |
| O=C(O)c1ccccc1 [benzoic acid] | – | – | – | – | – | – | – | – | – | – | – | – | – | – | – | – | – | – | vapor or sublimation pressure ([1]; 307.15 K, Crystal): 0.000285 ± 4e-05 kPa; vapor or sublimation pressure ([1]; 323.15 K, Crystal): 0.001674 ± 0.00019 kPa; vapor or sublimation pressure ([1]; 338.15 K, Crystal): 0.007513 ± 0.00085 kPa; vapor or sublimation pressure ([1]; 354.15 K, Crystal): 0.0316 ± 0.0034 kPa |

Second part, led by results:

| vapor or sublimation pressure ([1]; 431.15 K, Crystal) [kPa] | vapor or sublimation pressure ([1]; 437.15 K, Crystal) [kPa] | vapor or sublimation pressure ([1]; 439.15 K, Crystal) [kPa] | vapor or sublimation pressure ([1]; 441.15 K, Crystal) [kPa] | vapor or sublimation pressure ([1]; 443.15 K, Crystal) [kPa] | vapor or sublimation pressure ([1]; 445.15 K, Crystal) [kPa] | vapor or sublimation pressure ([1]; 447.15 K, Crystal) [kPa] | vapor or sublimation pressure ([1]; 449.15 K, Crystal) [kPa] | vapor or sublimation pressure ([1]; 451.15 K, Crystal) [kPa] | vapor or sublimation pressure ([1]; 453.15 K, Crystal) [kPa] | Normal melting temperature ([1]; Crystal) [°C] | Molar enthalpy of transition or fusion [2] [kcal/mol] | vapor or sublimation pressure ([1]; 436.15 K, Crystal) [kPa] | vapor or sublimation pressure ([1]; 438.15 K, Crystal) [kPa] | vapor or sublimation pressure ([1]; 440.15 K, Crystal) [kPa] | vapor or sublimation pressure ([1]; 442.15 K, Crystal) [kPa] | vapor or sublimation pressure ([1]; 444.15 K, Crystal) [kPa] | vapor or sublimation pressure ([1]; 446.15 K, Crystal) [kPa] | SMILES | further results |
| --- | --- | --- | --- | --- | --- | --- | --- | --- | --- | --- | --- | --- | --- | --- | --- | --- | --- | --- | --- |
| – | – | – | – | – | – | – | – | – | – | 270 ± 2.1 | – | 1.95e-06 ± 2.5e-07 | 2.43e-06 ± 3e-07 | 2.85e-06 ± 3.4e-07 | 3.54e-06 ± 4.2e-07 | 4.3e-06 ± 5e-07 | 4.97e-06 ± 5.7e-07 | O=C(O)c1cn(C2CC2)c2cc(N3CCNCC3)c(F)cc2c1=O [ciprofloxacin] | vapor or sublimation pressure ([1]; 448.15 K, Crystal): 5.94e-06 ± 6.8e-07 kPa; vapor or sublimation pressure ([1]; 450.15 K, Crystal): 7.09e-06 ± 8e-07 kPa; vapor or sublimation pressure ([1]; 452.15 K, Crystal): 8.4e-06 ± 9.5e-07 kPa; vapor or sublimation pressure ([1]; 454.15 K, Crystal): 1.045e-05 ± 1.2e-06 kPa; vapor or sublimation pressure ([1]; 456.15 K, Crystal): 1.228e-05 ± 1.4e-06 kPa; vapor or sublimation pressure ([1]; 458.15 K, Crystal): 1.461e-05 ± 1.6e-06 kPa; vapor or sublimation pressure ([1]; 460.15 K, Crystal): 1.764e-05 ± 1.9e-06 kPa |
| – | 5.71e-06 ± 6.5e-07 | 6.66e-06 ± 7.6e-07 | 8.35e-06 ± 9.4e-07 | 9.72e-06 ± 1.1e-06 | 1.135e-05 ± 1.3e-06 | 1.364e-05 ± 1.5e-06 | 1.607e-05 ± 1.8e-06 | 1.952e-05 ± 2.2e-06 | 2.326e-05 ± 2.6e-06 | 233.0 ± 3.1 | 5.26 ± 1.05 | – | – | – | – | – | – | C[C@H]1COc2c(N3CCN(C)CC3)c(F)cc3c(=O)c(C(=O)O)cn1c23 [levofloxacin] | vapor or sublimation pressure ([1]; 455.15 K, Crystal): 2.722e-05 ± 3e-06 kPa; vapor or sublimation pressure ([1]; 457.15 K, Crystal): 3.146e-05 ± 3.4e-06 kPa; vapor or sublimation pressure ([1]; 459.15 K, Crystal): 3.689e-05 ± 4e-06 kPa; Normal melting temperature ([1]; Metastable crystal): 227.0 ± 3.1 °C and 230.5 ± 3.1 °C |
| 2.66e-06 ± 3.2e-07 | – | – | – | – | – | – | – | – | – | 220.4 ± 2.2 | 8.63 ± 1.74 | 3.92e-06 ± 4.5e-07 | 4.53e-06 ± 5.2e-07 | 5.26e-06 ± 6e-07 | 6.02e-06 ± 6.8e-07 | 7.01e-06 ± 7.9e-07 | 8.32e-06 ± 9.3e-07 | CCn1cc(C(=O)O)c(=O)c2cc(F)c(N3CCNCC3)cc21 [norfloxacin] | vapor or sublimation pressure ([1]; 423.15 K, Crystal): 1.3e-06 ± 1.8e-07 kPa; vapor or sublimation pressure ([1]; 425.15 K, Crystal): 1.57e-06 ± 2.1e-07 kPa; vapor or sublimation pressure ([1]; 427.15 K, Crystal): 1.86e-06 ± 2.4e-07 kPa; vapor or sublimation pressure ([1]; 429.15 K, Crystal): 2.21e-06 ± 2.7e-07 kPa; vapor or sublimation pressure ([1]; 432.15 K, Crystal): 2.85e-06 ± 3.4e-07 kPa; vapor or sublimation pressure ([1]; 434.15 K, Crystal): 3.35e-06 ± 3.9e-07 kPa; Triple point temperature ([1]; Crystal 2, DSC): 468.7 ± 0.8 K |
